Measurements published in patent US8053553B2, “Targeting host proteinases as a therapeutic strategy against viral and bacterial pathogens” (Socpra Sciences Sante Et Humaines, priority 2007, dated 2011).
Non-standard residues stand in square brackets, D forms with d. Residues, ends and D or L forms follow the SMILES beside them. Sar = CNCC(=O)O

These molecules were tested against T1, furin (Homo sapiens, UniProt P09958) (assay: biochemical). Details: furin, Pyr-RTKR-AMC substrate; alanine scanning mutagenesis of the H5 furin cleavage sequence (Table 2); read-out: Ki.
T1 construct: made in house; host or cells: Drosophila S2 cells (Invitrogen expression system)
T1 sequence (P09958 108-794 limits assumed): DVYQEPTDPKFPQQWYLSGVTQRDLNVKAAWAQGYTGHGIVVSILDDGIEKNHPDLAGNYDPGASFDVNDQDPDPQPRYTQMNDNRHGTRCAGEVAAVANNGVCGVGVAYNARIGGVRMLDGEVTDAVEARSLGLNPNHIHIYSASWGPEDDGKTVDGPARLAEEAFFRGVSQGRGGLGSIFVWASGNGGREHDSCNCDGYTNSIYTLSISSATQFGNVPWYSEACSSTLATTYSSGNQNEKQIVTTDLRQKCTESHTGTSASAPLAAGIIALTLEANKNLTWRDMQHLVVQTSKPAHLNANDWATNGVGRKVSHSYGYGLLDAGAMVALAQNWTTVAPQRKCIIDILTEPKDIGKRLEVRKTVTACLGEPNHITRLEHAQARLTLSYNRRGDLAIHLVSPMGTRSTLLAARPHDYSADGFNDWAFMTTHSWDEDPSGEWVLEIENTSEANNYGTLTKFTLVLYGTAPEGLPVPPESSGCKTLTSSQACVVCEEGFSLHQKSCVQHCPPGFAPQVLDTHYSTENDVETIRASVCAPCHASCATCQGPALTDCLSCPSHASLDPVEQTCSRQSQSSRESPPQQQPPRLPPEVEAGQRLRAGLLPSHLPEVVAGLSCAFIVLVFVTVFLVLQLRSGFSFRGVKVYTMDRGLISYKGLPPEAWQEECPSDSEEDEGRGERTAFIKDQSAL

Compound | Ki
C[C@H](N)C(=O)N[C@@H](C)C(=O)N[C@@H](C)C(=O)N[C@@H](CCC(=O)O)C(=O)N[C@@H](CCCNC(=N)N)C(=O)N[C@@H](CCCNC(=N)N)C(=O)N[C@@H](CCCNC(=N)N)C(=O)N[C@@H](CCCCN)C(=O)N[C@@H](CCCCN)C(=O)N[C@@H](CCCNC(=N)N)C(N)=O (H-AAAERRRKKR-NH2) | > 100 nM
C[C@H](N)C(=O)N[C@@H](C)C(=O)N[C@@H](C)C(=O)N[C@@H](CCC(=O)O)C(=O)N[C@@H](CCCNC(=N)N)C(=O)N[C@@H](CCCNC(=N)N)C(=O)N[C@@H](CCCNC(=N)N)C(=O)N[C@@H](CCCCN)C(=O)N[C@@H](CCCCN)C(=O)N[C@@H](CCCNC(=N)N)C(=O)NCC(N)=O (H-AAAERRRKKRG-NH2) | > 100 nM
CC(C)[C@H](NC(=O)[C@H](CCCNC(=N)N)NC(=O)[C@H](CCCCN)NC(=O)[C@H](CCCCN)NC(=O)[C@H](CCCNC(=N)N)NC(=O)[C@H](CCCNC(=N)N)NC(=O)[C@H](CCCNC(=N)N)NC(=O)[C@H](CCC(=O)O)NC(=O)[C@H](C)NC(=O)[C@H](C)NC(=O)[C@H](C)N)C(N)=O (H-AAAERRRKKRV-NH2) | > 100 nM
C[C@H](N)C(=O)N[C@@H](C)C(=O)N[C@@H](CCCNC(=N)N)C(=O)N[C@@H](CCC(=O)O)C(=O)N[C@@H](CCCNC(=N)N)C(=O)N[C@@H](CCCNC(=N)N)C(=O)N[C@@H](CCCNC(=N)N)C(=O)N[C@@H](CCCCN)C(=O)N[C@@H](CCCCN)C(=O)N[C@@H](CCCNC(=N)N)C(N)=O (H-AARERRRKKR-NH2) | > 100 nM
C[C@H](N)C(=O)N[C@@H](C)C(=O)N[C@@H](CCCNC(=N)N)C(=O)N[C@@H](CCC(=O)O)C(=O)N[C@@H](CCCNC(=N)N)C(=O)N[C@@H](CCCNC(=N)N)C(=O)N[C@@H](CCCNC(=N)N)C(=O)N[C@@H](CCCCN)C(=O)N[C@@H](CCCCN)C(=O)N[C@@H](CCCNC(=N)N)C(=O)NCC(N)=O (H-AARERRRKKRG-NH2) | > 100 nM
CC(C)[C@H](NC(=O)[C@H](CCCNC(=N)N)NC(=O)[C@H](CCCCN)NC(=O)[C@H](CCCCN)NC(=O)[C@H](CCCNC(=N)N)NC(=O)[C@H](CCCNC(=N)N)NC(=O)[C@H](CCCNC(=N)N)NC(=O)[C@H](CCC(=O)O)NC(=O)[C@H](CCCNC(=N)N)NC(=O)[C@H](C)NC(=O)[C@H](C)N)C(N)=O (H-AARERRRKKRV-NH2) | > 100 nM
C[C@H](N)C(=O)N1CCC[C@H]1C(=O)N[C@@H](CCCNC(=N)N)C(=O)N[C@@H](CCC(=O)O)C(=O)N[C@@H](CCCNC(=N)N)C(=O)N[C@@H](CCCNC(=N)N)C(=O)N[C@@H](CCCNC(=N)N)C(=O)N[C@@H](CCCCN)C(=O)N[C@@H](CCCCN)C(=O)N[C@@H](CCCNC(=N)N)C(N)=O (H-APRERRRKKR-NH2) | > 100 nM
C[C@H](N)C(=O)N1CCC[C@H]1C(=O)N[C@@H](CCCNC(=N)N)C(=O)N[C@@H](CCC(=O)O)C(=O)N[C@@H](CCCNC(=N)N)C(=O)N[C@@H](CCCNC(=N)N)C(=O)N[C@@H](CCCNC(=N)N)C(=O)N[C@@H](CCCCN)C(=O)N[C@@H](CCCCN)C(=O)N[C@@H](CCCNC(=N)N)C(=O)NCC(N)=O (H-APRERRRKKRG-NH2) | > 100 nM
CC(C)[C@H](NC(=O)[C@H](CCCNC(=N)N)NC(=O)[C@H](CCCCN)NC(=O)[C@H](CCCCN)NC(=O)[C@H](CCCNC(=N)N)NC(=O)[C@H](CCCNC(=N)N)NC(=O)[C@H](CCCNC(=N)N)NC(=O)[C@H](CCC(=O)O)NC(=O)[C@H](CCCNC(=N)N)NC(=O)[C@@H]1CCCN1C(=O)[C@H](C)N)C(N)=O (H-APRERRRKKRV-NH2) | > 100 nM
C[C@H](NC(=O)[C@H](C)NC(=O)[C@@H](N)[C@@H](C)O)C(=O)N[C@@H](CCC(=O)O)C(=O)N[C@@H](CCCNC(=N)N)C(=O)N[C@@H](CCCNC(=N)N)C(=O)N[C@@H](CCCNC(=N)N)C(=O)N[C@@H](CCCCN)C(=O)N[C@@H](CCCCN)C(=O)N[C@@H](CCCNC(=N)N)C(N)=O (H-TAAERRRKKR-NH2) | > 100 nM
C[C@H](NC(=O)[C@H](C)NC(=O)[C@@H](N)[C@@H](C)O)C(=O)N[C@@H](CCC(=O)O)C(=O)N[C@@H](CCCNC(=N)N)C(=O)N[C@@H](CCCNC(=N)N)C(=O)N[C@@H](CCCNC(=N)N)C(=O)N[C@@H](CCCCN)C(=O)N[C@@H](CCCCN)C(=O)N[C@@H](CCCNC(=N)N)C(=O)NCC(N)=O (H-TAAERRRKKRG-NH2) | > 100 nM
CC(C)[C@H](NC(=O)[C@H](CCCNC(=N)N)NC(=O)[C@H](CCCCN)NC(=O)[C@H](CCCCN)NC(=O)[C@H](CCCNC(=N)N)NC(=O)[C@H](CCCNC(=N)N)NC(=O)[C@H](CCCNC(=N)N)NC(=O)[C@H](CCC(=O)O)NC(=O)[C@H](C)NC(=O)[C@H](C)NC(=O)[C@@H](N)[C@@H](C)O)C(N)=O (H-TAAERRRKKRV-NH2) | > 100 nM
C[C@H](NC(=O)[C@H](C)NC(=O)[C@@H](N)[C@@H](C)O)C(=O)N[C@@H](CCC(=O)O)C(=O)N[C@@H](CCCNC(=N)N)C(=O)N[C@@H](CCCNC(=N)N)C(=O)N[C@@H](CCCNC(=N)N)C(=O)N[C@@H](CCCCN)C(=O)N[C@@H](CCCCN)C(=O)N[C@@H](CCCNC(=N)N)C(=O)N(C)CC(N)=O (H-TAAERRRKKR[Sar]-NH2) | > 100 nM
C[C@H](NC(=O)[C@@H](N)[C@@H](C)O)C(=O)N[C@@H](CCCNC(=N)N)C(=O)N[C@@H](CCC(=O)O)C(=O)N[C@@H](CCCNC(=N)N)C(=O)N[C@@H](CCCNC(=N)N)C(=O)N[C@@H](CCCNC(=N)N)C(=O)N[C@@H](CCCCN)C(=O)N[C@@H](CCCCN)C(=O)N[C@@H](CCCNC(=N)N)C(N)=O (H-TARERRRKKR-NH2) | > 100 nM
C[C@H](NC(=O)[C@@H](N)[C@@H](C)O)C(=O)N[C@@H](CCCNC(=N)N)C(=O)N[C@@H](CCC(=O)O)C(=O)N[C@@H](CCCNC(=N)N)C(=O)N[C@@H](CCCNC(=N)N)C(=O)N[C@@H](CCCNC(=N)N)C(=O)N[C@@H](CCCCN)C(=O)N[C@@H](CCCCN)C(=O)N[C@@H](CCCNC(=N)N)C(=O)N[C@@H](CO)C(N)=O (H-TARERRRKKRS-NH2) | > 100 nM
CC(C)[C@H](NC(=O)[C@H](CCCNC(=N)N)NC(=O)[C@H](CCCCN)NC(=O)[C@H](CCCCN)NC(=O)[C@H](CCCNC(=N)N)NC(=O)[C@H](CCCNC(=N)N)NC(=O)[C@H](CCCNC(=N)N)NC(=O)[C@H](CCC(=O)O)NC(=O)[C@H](CCCNC(=N)N)NC(=O)[C@H](C)NC(=O)[C@@H](N)[C@@H](C)O)C(N)=O (H-TARERRRKKRV-NH2) | > 100 nM
C[C@H](NC(=O)[C@H](C)NC(=O)[C@@H]1CCCN1C(=O)[C@@H](N)[C@@H](C)O)C(=O)N[C@@H](C)C(=O)N[C@@H](CCCNC(=N)N)C(=O)N[C@@H](CCCNC(=N)N)C(=O)N[C@@H](CCCCN)C(=O)N[C@@H](CCCCN)C(=O)N[C@@H](CCCNC(=N)N)C(N)=O (H-TPAAARRKKR-NH2) | > 100 nM
C[C@H](NC(=O)[C@H](C)NC(=O)[C@@H]1CCCN1C(=O)[C@@H](N)[C@@H](C)O)C(=O)N[C@@H](C)C(=O)N[C@@H](CCCNC(=N)N)C(=O)N[C@@H](CCCNC(=N)N)C(=O)N[C@@H](CCCCN)C(=O)N[C@@H](CCCCN)C(=O)N[C@@H](CCCNC(=N)N)C(=O)NCC(N)=O (H-TPAAARRKKRG-NH2) | > 100 nM
CC(C)[C@H](NC(=O)[C@H](CCCNC(=N)N)NC(=O)[C@H](CCCCN)NC(=O)[C@H](CCCCN)NC(=O)[C@H](CCCNC(=N)N)NC(=O)[C@H](CCCNC(=N)N)NC(=O)[C@H](C)NC(=O)[C@H](C)NC(=O)[C@H](C)NC(=O)[C@@H]1CCCN1C(=O)[C@@H](N)[C@@H](C)O)C(N)=O (H-TPAAARRKKRV-NH2) | > 100 nM
C[C@H](NC(=O)[C@H](C)NC(=O)[C@@H]1CCCN1C(=O)[C@@H](N)[C@@H](C)O)C(=O)N[C@@H](C)C(=O)N[C@@H](CCCNC(=N)N)C(=O)N[C@@H](CCCNC(=N)N)C(=O)N[C@@H](CCCCN)C(=O)N[C@@H](CCCCN)C(=O)N[C@@H](CCCNC(=N)N)C(=O)N(C)CC(N)=O (H-TPAAARRKKR[Sar]-NH2) | > 100 nM
C[C@H](NC(=O)[C@H](C)NC(=O)[C@@H]1CCCN1C(=O)[C@@H](N)[C@@H](C)O)C(=O)N[C@@H](CCCNC(=N)N)C(=O)N[C@@H](CCCNC(=N)N)C(=O)N[C@@H](CCCNC(=N)N)C(=O)N[C@@H](CCCCN)C(=O)N[C@@H](CCCCN)C(=O)N[C@@H](CCCNC(=N)N)C(N)=O (H-TPAARRRKKR-NH2) | > 100 nM
C[C@H](NC(=O)[C@H](C)NC(=O)[C@@H]1CCCN1C(=O)[C@@H](N)[C@@H](C)O)C(=O)N[C@@H](CCCNC(=N)N)C(=O)N[C@@H](CCCNC(=N)N)C(=O)N[C@@H](CCCNC(=N)N)C(=O)N[C@@H](CCCCN)C(=O)N[C@@H](CCCCN)C(=O)N[C@@H](CCCNC(=N)N)C(=O)NCC(N)=O (H-TPAARRRKKRG-NH2) | > 100 nM

Same assay, conditions: furin, Pyr-RTKR-AMC substrate; optimization of the inhibitory peptides (Table 3); read-out: Ki

Compound | Ki
CC(C)C[C@H](NC(=O)[C@H](CCCNC(=N)N)NC(=O)[C@H](CCC(N)=O)NC(=O)[C@@H]1CCCN1C(=O)[C@@H](N)[C@@H](C)O)C(=O)N[C@@H](CCCNC(=N)N)C(=O)N[C@@H](CCCNC(=N)N)C(=O)N[C@@H](CCCNC(=N)N)C(=O)N[C@@H](CCCCN)C(=O)N[C@@H](CCCCN)C(=O)N[C@@H](CCCNC(=N)N)C(=O)NCC(N)=O | > 100 nM
CSCC[C@H](NC(=O)[C@H](CCCNC(=N)N)NC(=O)[C@H](CCC(N)=O)NC(=O)[C@@H]1CCCN1C(=O)[C@@H](N)[C@@H](C)O)C(=O)N[C@@H](CCCNC(=N)N)C(=O)N[C@@H](CCCNC(=N)N)C(=O)N[C@@H](CCCNC(=N)N)C(=O)N[C@@H](CCCCN)C(=O)N[C@@H](CCCCN)C(=O)N[C@@H](CCCNC(=N)N)C(=O)NCC(N)=O | > 100 nM
C[C@@H](O)[C@H](N)C(=O)N1CCC[C@H]1C(=O)N[C@@H](CCC(N)=O)C(=O)N[C@@H](CCCNC(=N)N)C(=O)N[C@@H](CCCNC(=N)N)C(=O)N[C@@H](CCCNC(=N)N)C(=O)N[C@@H](CCCNC(=N)N)C(=O)N[C@@H](CCCNC(=N)N)C(=O)N[C@@H](CCCCN)C(=O)N[C@@H](CCCCN)C(=O)N[C@@H](CCCNC(=N)N)C(=O)NCC(N)=O | > 100 nM

Same assay, conditions: read-out: Ki

Compound | Ki
C[C@H](NC(=O)[C@H](CCCNC(=N)N)NC(=O)[C@@H]1CCCN1C(=O)[C@@H](N)[C@@H](C)O)C(=O)N[C@@H](CCCNC(=N)N)C(=O)N[C@@H](CCCNC(=N)N)C(=O)N[C@@H](CCCNC(=N)N)C(=O)N[C@@H](CCCCN)C(=O)N[C@@H](CCCCN)C(=O)N[C@@H](CCCNC(=N)N)C(=O)N[C@@H](CC(=O)O)C(N)=O | 56 nM
